Assay results: ChEMBL document CHEMBL3396976, “Design, synthesis and evaluation of isoxazolo[5,4-d]pyrimidin-4(5H)-one derivatives as antithrombotic agents” (Bioorg Med Chem Lett, 2015)
Activity calls are given as the source filed them. The calls are words filed in the database; no cut-off is given here.

Experiments:
[1] = target: T1, Coagulation factor X (Homo sapiens, UniProt P00742); experiment: Inhibition of human F10a using chromogenic substrate S-2765 preincubated for 10 mins at 0.1 uM by spectrophotometry
T1 sequence (P00742 41-179 limits assumed): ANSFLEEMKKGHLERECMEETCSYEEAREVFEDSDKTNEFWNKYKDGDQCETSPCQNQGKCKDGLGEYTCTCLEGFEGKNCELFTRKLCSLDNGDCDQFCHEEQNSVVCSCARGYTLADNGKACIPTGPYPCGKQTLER
T1 sequence (P00742 235-488 limits assumed): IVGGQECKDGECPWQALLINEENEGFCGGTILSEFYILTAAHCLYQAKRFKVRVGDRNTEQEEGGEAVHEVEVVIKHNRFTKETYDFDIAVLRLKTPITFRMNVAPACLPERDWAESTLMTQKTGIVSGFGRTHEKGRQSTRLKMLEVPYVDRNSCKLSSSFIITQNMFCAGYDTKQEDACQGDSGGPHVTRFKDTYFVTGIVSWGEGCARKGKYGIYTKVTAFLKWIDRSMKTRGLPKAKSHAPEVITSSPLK

[2] = organism: Homo sapiens; experiment: Selectivity ratio of IC50 for trypsin (unknown origin) to IC50 for human F10a
[3] = organism: Homo sapiens; experiment: Selectivity ratio of IC50 for thrombin (unknown origin) to IC50 for human F10a
[4] = target: Prothrombin (Homo sapiens, UniProt P00734); experiment: Inhibition of thrombin (unknown origin) using chromogenic substrate S-2238 by spectrophotometry
[5] = tested on: Plasma; experiment: Anticoagulant activity in human plasma assessed as concentration required to double prothrombin time; format: functional
[6] = target: T1, Coagulation factor X; experiment: Inhibition of human F10a using chromogenic substrate S-2765 preincubated for 10 mins by spectrophotometry

| inhibition [1] | Structure (SMILES) | other results |
| --- | --- | --- |
| 37% | COc1ccc(-c2noc3ncn(-c4ccc(C(=O)N5CCOCC5)cc4)c(=O)c23)cc1 | – |
| 98% | COc1cc(-c2noc3ncn(-c4ccc(N5CCOCC5=O)cc4)c(=O)c23)ccc1OC(C)=O | Ratio IC50 [2]: > 1000; Ratio IC50 [3]: > 1000; IC50 [4]: > 20000 nM; 2PT [5]: 2.12 µM; IC50 [6]: 13 nM |
| 27% | O=C1COCCN1c1ccc(-n2cnc3onc(-c4ccccc4)c3c2=O)cc1 | – |
| 54% | COc1ccc(-c2noc3ncn(-c4ccc(C(=O)N5CCCCC5)cc4)c(=O)c23)cc1 | – |
| inactive | CCc1nc2onc(-c3ccc(Cl)cc3)c2c(=O)n1-c1ccc(N2CCOCC2=O)cc1 | – |
| 83% | CCN(CC)C(=O)c1ccc(-n2cnc3onc(-c4ccc(OC)cc4)c3c2=O)cc1 | – |
| 72% | COc1ccc(-c2noc3ncn(-c4ccc(C(=O)NC5CCCCC5)cc4)c(=O)c23)cc1 | – |
| 43% | Cc1ccc(-c2noc3ncn(-c4ccc(N5CCOCC5=O)cc4)c(=O)c23)cc1 | – |
| 83% | CCCNC(=O)c1ccc(-n2cnc3onc(-c4ccc(OC)cc4)c3c2=O)cc1 | – |
| Active | O=C(NC[C@H]1CN(c2ccc(N3CCOCC3=O)cc2)C(=O)O1)c1ccc(Cl)s1 | – |
| 42% | CCc1nc2onc(-c3ccc(OC)c(OC)c3)c2c(=O)n1-c1ccc(N2CCOCC2=O)cc1 | – |
| 47% | COc1ccc(-c2noc3ncn(-c4ccc(C(=O)N(C)c5ccccc5)cc4)c(=O)c23)cc1 | – |
| inactive | CCc1nc2onc(-c3ccc([N+](=O)[O-])cc3)c2c(=O)n1-c1ccc(N2CCOCC2=O)cc1 | – |
| 47% | COc1ccc(-c2noc3nc(C)n(-c4ccc(N5CCOCC5=O)cc4)c(=O)c23)cc1OC | – |
| 41% | Cc1nc2onc(-c3ccc(Cl)cc3)c2c(=O)n1-c1ccc(N2CCOCC2=O)cc1 | – |
| 36% | CCc1nc2onc(-c3ccc(OC)cc3)c2c(=O)n1-c1ccc(N2CCOCC2=O)cc1 | – |
| 55% | COc1ccc(-c2noc3nc(C)n(-c4ccc(N5CCOCC5=O)cc4)c(=O)c23)cc1 | – |
| 75% | COc1ccc(-c2noc3ncn(-c4ccc(C(=O)NC5CCCC5)cc4)c(=O)c23)cc1 | – |
| 56% | O=C1COCCN1c1ccc(-n2cnc3onc(-c4ccc(Cl)cc4)c3c2=O)cc1 | – |
| inactive | CCc1nc2onc(-c3ccc(C)cc3)c2c(=O)n1-c1ccc(N2CCOCC2=O)cc1 | – |
| 46% | COc1ccc(-c2noc3ncn(-c4ccc(C(=O)N5CCCC5)cc4)c(=O)c23)cc1 | – |
| 89% | COc1ccc(-c2noc3ncn(-c4ccc(C(=O)Nc5ccccn5)cc4)c(=O)c23)cc1 | Ratio IC50 [2]: > 1000; Ratio IC50 [3]: > 1000; IC50 [4]: > 20000 nM; 2PT [5]: 3.37 µM; IC50 [6]: 18 nM |
| inactive | Cc1ccc(-c2noc3nc(C)n(-c4ccc(N5CCOCC5=O)cc4)c(=O)c23)cc1 | – |
| 78% | COc1ccc(-c2noc3ncn(-c4ccc(N5CCOCC5=O)cc4)c(=O)c23)cc1 | – |
| inactive | O=C1COCCN1c1ccc(-n2cnc3onc(-c4ccc([N+](=O)[O-])cc4)c3c2=O)cc1 | – |
| inactive | Cc1nc2onc(-c3ccc([N+](=O)[O-])cc3)c2c(=O)n1-c1ccc(N2CCOCC2=O)cc1 | – |
| inactive | CCc1nc2onc(-c3ccccc3)c2c(=O)n1-c1ccc(N2CCOCC2=O)cc1 | – |
| 81% | COc1ccc(-c2noc3ncn(-c4ccc(C(=O)Nc5ccccc5)cc4)c(=O)c23)cc1 | – |
| 77% | COc1ccc(-c2noc3ncn(-c4ccc(N5CCOCC5=O)cc4)c(=O)c23)cc1OC | – |
| inactive | Cc1nc2onc(-c3ccccc3)c2c(=O)n1-c1ccc(N2CCOCC2=O)cc1 | – |
